Laboratory results published in patent US11306124B2, “Agonist agents of CD47 inducing programmed cell death and their use in the treatments of diseases associated with defects in programmed cell death” (SORBONNE UNIVERSITE, priority 2016, dated 2022).
Like-named read-outs stand apart in the source and are kept apart here. Residues, ends and D or L forms follow the SMILES beside them.

Experiments:
HCT-116 cells = format: cell-based, human; conditions: for Early Apoptosis, Mean (%) / Late apoptosis, Mean (%): HCT-116 cells; for Early Apoptosis, Mean (%) / Late apoptosis, Mean (%) / Viable, Mean (%): 2 h; for Viable, Mean (%): human
Description: 2.2.2. Cell Death Analysis by Flow Cytometry
To detect possible apoptotic processes, cells were seeded in 35 mm dishes and cultured in media containing each tested cyclic peptide for 2 hours following procedure A or B.
Procedure B: Peptides were incubated for 2 hours on HCT-116 cells. Superkiller Trail (ALX-201-115C-010) was used as a positive pro-apoptotic control. Cells were analyzed by cytofluorometry using FITC Annexin V apoptosis detection kit with 7-AAD from BIOLEGEND (BLE640922).

[1] = tested on: MCF-7, HCT-116, BxPC3 and A549 cancer cells; assay: Cell viability and proliferation of tumor cells (cytotoxic assay and direct cell counting); format: cell-based, human; conditions: for viability in all cell strains: 2 hours, 10 to 50 μM peptide concentration
Description: The effects of several cyclic peptides of the invention on the proliferation of tumor cells were evaluated on 5 cell lines (MCF-7, human breast cancer cells; HCT-116, human colon cancer cells; BxPC3, human pancreas cancer cells and A549, human lung cancer cells) by cytotoxic assay and by counting directly the number of cells.
Those cyclic peptides were dissolved in DMSO at the following concentrations: 0, 5, 10, 25, 50 and 100 μM.
Culture media used for these assays are: EMEM=10% SVF for MCF-7 and Wi38; RPMI […] SVF for HCT-116 and BxPC3 and F-12K=10% SVF for A549.
500 cells were seeded in 96-well plates, incubated at 37° C. for 24 hours, and treated by the cyclic peptides at the different concentrations and controls for 2 h.

[2] = tested on: Trypsin, Chymotrypsin and Proteinase K; assay: Proteolytic stability (incubation with proteases or in Human Serum); format: in vitro ADME
Description: Proteolytic stability studies were performed by peptides incubation with proteases (such as Trypsin, Chymotrypsin and Proteinase K) or in Human Serum as described earlier (See Karoyan et al. J. Med. Chem. 2016).

[3] = tested on: B-chronic lymphocytic leukemia (CLL) primary cells; conditions: cited from earlier work; for induction of caspase-independent PCD: soluble peptide, CLL primary cells
[4] = peptide concentration 12.5 (μM)

| Compound | Early Apoptosis, Mean (%) (HCT-116 cells; [4]) | Late apoptosis, Mean (%) (HCT-116 cells; [4]) | Early Apoptosis, Mean (%) (HCT-116 cells; peptide concentration 25 (μM)) | Late apoptosis, Mean (%) (HCT-116 cells; peptide concentration 25 (μM)) | Early Apoptosis, Mean (%) (HCT-116 cells; peptide concentration 50 (μM)) | Late apoptosis, Mean (%) (HCT-116 cells; peptide concentration 50 (μM)) | Viable, Mean (%) (HCT-116 cells; 12.5 μM) | Viable, Mean (%) (HCT-116 cells; 25 μM) | Viable, Mean (%) (HCT-116 cells; 50 μM) | viability in all cell strains [1] | stability toward proteases [2] | other results |
| --- | --- | --- | --- | --- | --- | --- | --- | --- | --- | --- | --- | --- |
| CSCC[C@@H]1NC(=O)[C@H](C(C)C)NC(=O)[C@H](C(C)C)NC(=O)[C@H](Cc2ccc(O)cc2)NC(=O)[C@H](Cc2ccccc2)NC(=O)[C@H](CCCNC(=N)N)NC(=O)[C@H](CCCCN)NC(=O)[C@H](Cc2c[nH]c3ccccc23)NC1=O [PKC1, reference compound] | 4.54% | 2.25% | 4.55% | 2.56% | 4.98% | 2.75% | 92.95% | 92.72% | 92.15% | – | – | efficacy in triggering PCD (HCT-116 cells; from 12.5 to 50 μM): no efficacy; efficiency in inducing cell death on cancer cell lines ([1]; MCF-7, HCT-116, BxPC3, A549): no potency in inducing cell death |
| CSCC[C@@H]1NC(=O)[C@H](C(C)C)NC(=O)[C@H](C(C)C)NC(=O)[C@H](Cc2ccc(O)cc2)NC(=O)[C@H](Cc2ccccc2)NC(=O)[C@H](CCCNC(=N)N)NC(=O)[C@H](CC(N)=O)NC(=O)[C@H](C(C)C)NC(=O)[C@H](C(C)C)NC(=O)[C@H](CCCCN)NC(=O)[C@H](C(C)C)NC(=O)[C@H](CO)NC(=O)[C@H](CC(C)C)NC(=O)CNC(=O)[C@H](CO)NC(=O)[C@@H]2CCCN2C(=O)[C@H]2CCCN2C(=O)[C@H](CCC(N)=O)NC(=O)[C@H](CCCCN)NC(=O)[C@H](Cc2c[nH]c3ccccc23)NC1=O [PKTD12, —R—F—Y—V—V—M—W—K—Q—p—P—S—G—L—S—V—K—V—V—N—] (HELM PEPTIDE1{R.F.Y.V.V.M.W.K.Q.[dP].P.S.G.L.S.V.K.V.V.N}$PEPTIDE1,PEPTIDE1,1:R1-20:R2$$$V2.0) | 5.78% | 3.11% | 7.15% | 3.26% | 19.16% | 6.80% | 90.87% | 89.42% | 73.78% | dose-dependent viability decrease | – | – |
| CSCC[C@@H]1NC(=O)[C@H](C(C)C)NC(=O)[C@H](C(C)C)NC(=O)[C@H](Cc2ccc(O)cc2)NC(=O)[C@H](Cc2ccccc2)NC(=O)[C@H](CCCNC(=N)N)NC(=O)[C@H](CO)NC(=O)[C@H](CO)NC(=O)[C@H](CC(N)=O)NC(=O)[C@H](C(C)C)NC(=O)[C@H](C(C)C)NC(=O)[C@H](CCCCN)NC(=O)[C@H](C)NC(=O)[C@H](CO)NC(=O)[C@H](CC(C)C)NC(=O)CNC(=O)[C@@H]2CCCN2C(=O)[C@H]2CCCN2C(=O)[C@H](CCCCN)NC(=O)[C@H](Cc2c[nH]c3ccccc23)NC1=O [PKTD10-4, —S—R—F—Y—V—V—M—W—K—p—P—G—L—S—A—K—V—V—N—S—] (HELM PEPTIDE1{S.R.F.Y.V.V.M.W.K.[dP].P.G.L.S.A.K.V.V.N.S}$PEPTIDE1,PEPTIDE1,1:R1-20:R2$$$V2.0) | 9.27% | 4.39% | 11.91% | 5.54% | 15.68% | 7.53% | 85.90% | 82.41% | 76.52% | dose-dependent viability decrease | – | – |
| CC(C)C[C@@H]1NC(=O)[C@@H]2CCCN2C(=O)[C@H]2CCCN2C(=O)[C@H](Cc2c[nH]c3ccccc23)NC(=O)[C@H](CCCCN)NC(=O)[C@H](C(C)C)NC(=O)[C@H](C(C)C)NC(=O)[C@H](Cc2ccc(O)cc2)NC(=O)[C@H](Cc2ccccc2)NC(=O)[C@H](C(C)C)NC(=O)[C@H](C(C)C)NC(=O)[C@H](CCCCN)NC(=O)[C@H](C(C)C)NC(=O)[C@H](CO)NC1=O [PKD10, —F—Y—V—V—K—W—p—P—L—S—V—K—V—V—] (HELM PEPTIDE1{L.S.V.K.V.V.F.Y.V.V.K.W.[dP].P}$PEPTIDE1,PEPTIDE1,1:R1-14:R2$$$V2.0) | – | – | – | – | – | – | – | – | – | – | fully stable | – |
| K-RFYVVMWK-K (KRFYVVMWKK; listed as Homo sapiens) [Peptide 4N1K, soluble decapeptide that mimics the C-terminal domain of TSP-1] | – | – | – | – | – | – | – | – | – | – | – | selective elimination of leukemic B-cells versus healthy B-lymphocytes or resting normal B-cells from CLL patients ([3]; CD47 ligation): specifically eliminates leukemic B-cells; induction of caspase-independent PCD [3]: induces caspase-independent PCD |
| KRFYGGMWKK [Peptide 4NGG, linear negative control peptide, 4N1K mutated in two amino acids] | – | – | – | – | – | – | – | – | – | – | – | induction of caspase-independent PCD [3]: unable to induce PCD |
| CSCC[C@@H]1NC(=O)[C@H](C(C)C)NC(=O)[C@H](C(C)C)NC(=O)[C@H](Cc2ccc(O)cc2)NC(=O)[C@H](Cc2ccccc2)NC(=O)[C@H](CCCNC(=N)N)NC(=O)[C@H](CO)NC(=O)[C@H](CO)NC(=O)[C@H](CC(N)=O)NC(=O)[C@H](C(C)C)NC(=O)[C@H](C(C)C)NC(=O)[C@H](CCCCN)NC(=O)[C@H](C(C)C)NC(=O)[C@H](C)NC(=O)[C@H](CC(C)C)NC(=O)CNC(=O)[C@@H]2CCCN2C(=O)[C@H]2CCCN2C(=O)[C@H](CCCCN)NC(=O)[C@H](Cc2c[nH]c3ccccc23)NC1=O [PKTD10-3, —S—R—F—Y—V—V—M—W—K—p—P—G—L—A—V—K—V—V—N—S—] (HELM PEPTIDE1{S.R.F.Y.V.V.M.W.K.[dP].P.G.L.A.V.K.V.V.N.S}$PEPTIDE1,PEPTIDE1,1:R1-20:R2$$$V2.0) | 8.17% | 4.35% | 13.16% | 7.06% | 13.13% | 6.85% | 86.83% | 79.30% | 79.67% | dose-dependent viability decrease | – | – |
| CSCC[C@@H]1NC(=O)[C@H](C(C)C)NC(=O)[C@H](C(C)C)NC(=O)[C@H](Cc2ccc(O)cc2)NC(=O)[C@H](Cc2ccccc2)NC(=O)[C@H](C(C)C)NC(=O)[C@H](C(C)C)NC(=O)[C@H](CCCCN)NC(=O)[C@H](C(C)C)NC(=O)[C@H](CO)NC(=O)[C@H](CC(C)C)NC(=O)[C@@H]2CCCN2C(=O)[C@H]2CCCN2C(=O)[C@H](Cc2c[nH]c3ccccc23)NC1=O [PKD8, —F—Y—V—V—M—W—p—P—L—S—V—K—V—V—] (HELM PEPTIDE1{L.S.V.K.V.V.F.Y.V.V.M.W.[dP].P}$PEPTIDE1,PEPTIDE1,1:R1-14:R2$$$V2.0) | – | – | – | – | – | – | – | – | – | – | fully stable | – |
| CCCC[C@@H]1NC(=O)[C@H](C(C)C)NC(=O)[C@H](C(C)C)NC(=O)[C@H](Cc2ccc(O)cc2)NC(=O)[C@H](Cc2ccccc2)NC(=O)[C@H](C(C)C)NC(=O)[C@H](C(C)C)NC(=O)[C@H](CCCCN)NC(=O)[C@H](C(C)C)NC(=O)[C@H](CO)NC(=O)[C@H](CC(C)C)NC(=O)[C@@H]2CCCN2C(=O)[C@H]2CCCN2C(=O)[C@H](Cc2c[nH]c3ccccc23)NC1=O [PKD9, —F—Y—V—V—X—W—p—P—L—S—V—K—V—V— X = NLe] (HELM PEPTIDE1{L.S.V.K.V.V.F.Y.V.V.[Nle].W.[dP].P}$PEPTIDE1,PEPTIDE1,1:R1-14:R2$$$V2.0) | – | – | – | – | – | – | – | – | – | – | fully stable | – |
